Test results from patent US20250011319A1, “SUBSTITUTED 1H-PYRAZOLO [4,3-c] QUINOLINES, METHODS OF PREPARATION, AND USE THEREOF” (Lomond Therapeutics, Inc., priority 2021, published 2025).
Like-named read-outs stand apart in the source and are kept apart here.

What was measured:
MV4-11 cell lines = assay: MV4-11 Cytotoxicity Assay (CellTiter-Glo); type: cell-based; settings: Homo sapiens, read-out: MV4-11, CC50
Protocol: Example B. MV4-11 Cytotoxicity Assay. CC50 was determined using MV4-11 cell lines in RPMI-1640 culture medium (PanEco cat #C363). Compounds were prepared as 200× stocks with serial dilution in 100% DMSO with a final concentration of 1×. Dispersed 40 μL in 384-well plates at a concentration of 4000 cells per well using a robotic station Biomek (Beckman). Before adding compounds, the cells were incubated at 37° C. A dilution plate was prepared by pouring 78 μl of the appropriate culture medium using a robotic station Biomek (Beckman). Sequentially, using a robotic station, 2 μl of substances were taken and added to 78 μl of culture medium (dilution of compounds 40×). Took from there 10 μl and added to the plates to the cells (dilution of compounds 5×). The plates were incubated for 3 days at a temperature 37° C. After 3 days, 10 μl of CellTiter-Glo (Promega) was added to the cells and the luminescence was measured.

MOLM-13 = MOLM-13 Cytotoxicity Assay; type: cell-based; settings: Homo sapiens
Protocol: Example C. MOLM-13 Cytotoxicity Assay. Assay was performed according the procedure described in O. A. Elgamal et al. J. Hematol. Oncol. 2020, 13, 8 (https://doi.org/10.1186/s13045-019-0821-7).

recombinant HPK1 protein = recombinant HPK1 protein (Homo sapiens (Human), UniProt Q92918); assay: Primary HPK1 enzymatic inhibition (ADP-Glo luminescence); type: biochemical; settings: recombinant HPK1, MBP substrate, 1 hour at room temperature
Protocol: Example A. Primary Assay used to determine potency of HPK1 enzymatic activity inhibition. Compound activity was determined using recombinant HPK1 protein and MBP Substrate (both Promega, Cat #V6398) in an in vitro enzymatic reaction. The enzymatic assay used to determine activity was a Luminescence assay using a Microplate Reader ClarioStar Plus. The enzymatic reaction was carried out in assay buffer (40 mM TRIS-HCl pH 7.4-7.6, 20 mM MgCl2, 0.05 mM DTT, 0.1 mg/ml BSA). The compounds were dispensed on a 384 well Diamond Well Plate (Axigen, Cat #P-384-120SQ-C—S) using the Biomek FX liquid handling system at 100× solutions of compounds in DMSO. 2×HPK1-MBP mix (final concentration 0.64 ng/μl of HPK1 and 45 ng/μl of MBP) was prepared in 1× Assay buffer and 5.5 μl of mixture per well was added into 384 w white Reaction plate with NBS (Corning, Cat #4513). 5.5 μl of MBP substrate w/o HPK1 in 1× buffer was used for negative control. Plates were centrifuged for 1 min at 100 g. Next step the Compounds were added to Reaction plate using Biomek station via following steps: 1l of 100× compounds (in DMSO) were mixed thoroughly with 49 ul of 2×10 uM ATP in Assay Buffer, then 5.5 μl of this mixture was added to Reaction plate with 5.5 μl of HPK1-MBP mix. Plates were centrifuged for 1 min at 100 g and incubated for 1 hour at room temperature. Next 3 μL of ADP-Glo reagent (Promega, ADP-Glo™ Kinase Assay, Cat #V9102) per well was added. Plates were incubated for 30 minutes at room temperature. Then 6 μL of Kinase detection reagent (Promega, ADP-Glo™ Kinase Assay, Cat #V9102) per well was added and the Luminescence was measured using Microplate Reader. The % inhibition was then used to calculate the IC50 values.

FLT3 (D835Y) = FLT3 (D835Y) (Homo sapiens (Human), UniProt P36888, D835Y); assay: FLT3 kinase radiometric HotSpot assay, FLT3 (D835Y); type: biochemical
Protocol: (§1) Example D. FLT3 inhibitory activity and cytotoxicity. This assay was used to determine potency of FLT3 enzymatic activity inhibition. Corresponding biochemical inhibition of enzymatic activities of FLT3 (wt), FLT3 (D835Y), and FLT3 (ITD) were measured using recombinant protein constructs of kinase domains via activity based FLT3 kinase assay for compound screening and profiling via radiometric HotSpot™ kinase assay (Reaction Biology). Peptide substrate [[…]]. Compounds were dissolved to 10 mM in DMSO. Compounds were tested in 10-dose IC50 mode with a 3-fold serial dilution starting at 0.3 μM. […] Reactions were carried out at 1 μM ATP. The estimated Ki values were calculated by using the formula presented below, which is applicable for ATP competitive inhibitors: Ki=IC50/(1+[S]/Km). […] In Table E shown HEK293 cytotoxicity.

FLT3 (ITD) = FLT3 (ITD) (Homo sapiens, UniProt P36888, ITD); assay: FLT3 kinase radiometric HotSpot assay, FLT3 (ITD); type: biochemical
HEK293 cytotoxicity = type: cell-based; settings: human, HEK293 cells
Protocol: as §1

FLT3 (wt) = FLT3 (wt) (Homo sapiens (Human), UniProt P36888); assay: FLT3 kinase radiometric HotSpot assay, FLT3 (wt); type: biochemical
Protocol: as §1

[1] = 72 h, MV4-11 cells, 3 days, CellTiter-Glo
[2] = MOLM-13 cells, read-out: MOLM-13, CC50

Chain of recombinant HPK1 protein (Q92918 whole entry): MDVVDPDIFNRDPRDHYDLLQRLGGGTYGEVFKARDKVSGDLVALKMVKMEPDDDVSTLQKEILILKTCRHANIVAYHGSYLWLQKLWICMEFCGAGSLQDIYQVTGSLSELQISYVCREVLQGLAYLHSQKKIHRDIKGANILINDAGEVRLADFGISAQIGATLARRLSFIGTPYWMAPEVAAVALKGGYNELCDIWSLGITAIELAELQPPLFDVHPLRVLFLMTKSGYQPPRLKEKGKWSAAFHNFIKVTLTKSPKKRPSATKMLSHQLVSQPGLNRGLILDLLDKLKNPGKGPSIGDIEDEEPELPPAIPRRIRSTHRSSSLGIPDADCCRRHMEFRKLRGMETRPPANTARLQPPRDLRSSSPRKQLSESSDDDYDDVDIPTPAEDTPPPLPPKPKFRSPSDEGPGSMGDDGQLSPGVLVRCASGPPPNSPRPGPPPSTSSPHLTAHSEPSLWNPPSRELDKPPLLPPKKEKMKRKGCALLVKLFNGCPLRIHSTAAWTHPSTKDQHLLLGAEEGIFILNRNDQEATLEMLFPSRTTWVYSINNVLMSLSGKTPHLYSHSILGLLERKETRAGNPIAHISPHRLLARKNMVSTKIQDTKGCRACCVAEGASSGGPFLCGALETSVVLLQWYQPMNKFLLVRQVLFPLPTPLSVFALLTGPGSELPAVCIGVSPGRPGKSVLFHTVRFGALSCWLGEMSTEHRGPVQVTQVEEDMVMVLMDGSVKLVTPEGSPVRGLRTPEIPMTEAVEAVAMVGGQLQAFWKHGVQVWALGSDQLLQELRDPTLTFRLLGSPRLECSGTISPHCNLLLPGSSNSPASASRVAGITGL

Compound | Ki (recombinant HPK1 protein) [nM] | CC50 (MV4-11 cell lines; [1]) [nM] | CC50 (MOLM-13; [2]) [nM] | Ki (FLT3 (D835Y)) [nM] | Ki (FLT3 (wt)) [nM] | also measured
COc1ccc2ncc3c(-c4ccc(OC)c(OC)c4)nn(-c4ccc5c(c4)CCNC5)c3c2c1 [Compound 1.35, 6-[3-(3,4-dimethoxyphenyl)-8-methoxy-1H-pyrazolo[4,3-c]quinolin-1-yl]-1,2,3,4-tetrahydroisoquinoline] | < 10 | – | – | < 0.5 | < 0.5 | Ki (FLT3 (ITD); read-out: Ki, nM FLT3 (ITD)): 0.5 to 2 nM; CC50 (HEK293 cytotoxicity): < 10000 nM
COc1ccc(-c2nn(-c3ccc4c(c3)CNC4)c3c2cnc2ccccc23)cc1OC [Compound 1.33, 5-[3-(3,4-dimethoxyphenyl)-1H-pyrazolo[4,3-c]quinolin-1-yl]-2,3-dihydro-1H-isoindole] | – | – | – | < 0.5 | 0.5 to 2 | Ki (FLT3 (ITD)): 2 to 5 nM; CC50 (HEK293 cytotoxicity): ≥ 50000 nM
COc1ccc2ncc3c(-c4ccc(OC)c(OC)c4)nn(-c4ccc5c(c4)CNC5)c3c2c1 [Compound 1.36, 5-[3-(3,4-dimethoxyphenyl)-8-methoxy-1H-pyrazolo[4,3-c]quinolin-1-yl]-2,3-dihydro-1H-isoindole] | < 10 | – | – | < 0.5 | < 0.5 | Ki (FLT3 (ITD); read-out: Ki, nM FLT3 (ITD)): 0.5 to 2 nM; CC50 (HEK293 cytotoxicity): < 10000 nM
Cc1ccc(-n2nc(-c3ccc(N4CCNCC4)cc3)c3cnc4ccccc4c32)cc1C [Compound 1.22, 1-{4-[1-(3,4-dimethylphenyl)-1H-pyrazolo[4,3-c]quinolin-3-yl]phenyl}piperazine] | ≥ 50 | 100 to 500 | 1000 to 5000 | – | – | –
COc1ccc2ncc3c(-c4ccc(OCCN(C)C)c(OC)c4)nn(-c4ccc(C)c(C)c4)c3c2c1 [Compound 1.24, (2-{4-[1-(3,4-dimethylphenyl)-8-methoxy-1H-pyrazolo[4,3-c]quinolin-3-yl]-2-methoxyphenoxy}ethyl)dimethylamine] | 10 to 20 | – | – | – | – | CC50 (MV4-11 cell lines; MV4-11, 72 h): < 50 nM; CC50 (MOLM-13; MOLM-13, read-out: MOLM-13, CC50): < 500 nM
COc1ccc2ncc3c(-c4ccc(OC)c(OC)c4)nn(-c4ccc5c(c4)CNCC5)c3c2c1 [Compound 1.34, 7-[3-(3,4-dimethoxyphenyl)-8-methoxy-1H-pyrazolo[4,3-c]quinolin-1-yl]-1,2,3,4-tetrahydroisoquinoline] | – | – | – | < 0.5 | < 0.5 | Ki (FLT3 (ITD); read-out: Ki, nM FLT3 (ITD)): < 0.5 nM
COc1ccc(-c2nn(-c3ccc4c(c3)CNCC4)c3c2cnc2ccccc23)cc1OC [Compound 1.31, 7-[3-(3,4-dimethoxyphenyl)-1H-pyrazolo[4,3-c]quinolin-1-yl]-1,2,3,4-tetrahydroisoquinoline] | – | – | – | < 0.5 | < 0.5 | Ki (FLT3 (ITD)): 0.5 to 2 nM; CC50 (HEK293 cytotoxicity): < 10000 nM
COc1ccc(-c2nn(-c3ccc4c(c3)CCNC4)c3c2cnc2ccccc23)cc1OC [Compound 1.32, 6-[3-(3,4-dimethoxyphenyl)-1H-pyrazolo[4,3-c]quinolin-1-yl]-1,2,3,4-tetrahydroisoquinoline] | – | – | – | 0.5 to 2 | 0.5 to 2 | Ki (FLT3 (ITD)): > 5 nM; CC50 (HEK293 cytotoxicity): 10000 to 50000 nM

Second part, led by results:

Ki (recombinant HPK1 protein) [nM] | Compound | CC50 (MV4-11 cell lines; [1]) [nM] | CC50 (MOLM-13; [2]) [nM] | Ki (FLT3 (D835Y)) [nM] | Ki (FLT3 (wt)) [nM] | also measured
10 to 20 | COc1ccc2ncc3c(-c4cccc(N5CCC(N(C)C)CC5)c4)nn(-c4ccc(C)c(C)c4)c3c2c1 [Compound 1.1, 1-{3-[1-(3,4-dimethylphenyl)-8-methoxy-1H-pyrazolo[4,3-c]quinolin-3-yl]phenyl}-N,N-dimethylpiperidin-4-amine] | > 500 | 1000 to 5000 | – | – | –
10 to 20 | COc1ccc2ncc3c(-c4ccc(N5CCC(N(C)C)CC5)cc4)nn(-c4ccc(C)c(C)c4)c3c2c1 [Compound 1.17, 1-{4-[1-(3,4-dimethylphenyl)-8-methoxy-1H-pyrazolo[4,3-c]quinolin-3-yl]phenyl}-N,N-dimethylpiperidin-4-amine] | 50 to 100 | – | – | – | –
≥ 50 | Cc1ccc(-n2nc(-c3ccc(N4CCN(C)CC4)cc3)c3cnc4ccccc4c32)cc1C [Compound 1.21, 1-{4-[1-(3,4-dimethylphenyl)-1H-pyrazolo[4,3-c]quinolin-3-yl]phenyl}-4-methylpiperazine] | 100 to 500 | 1000 to 5000 | – | – | –
10 to 20 | COc1ccc2ncc3c(-c4cccc(N5CCN(C)CC5)c4)nn(-c4ccc(C)c(C)c4)c3c2c1 [Compound 1.3, 1-{3-[1-(3,4-dimethylphenyl)-8-methoxy-1H-pyrazolo[4,3-c]quinolin-3-yl]phenyl}-4-methylpiperazine] | 100 to 500 | > 5000 | – | – | –
20 to 50 | COc1ccc2ncc3c(-c4ccc(OCCN5CCOCC5)c(OC)c4)nn(-c4ccc(C)c(C)c4)c3c2c1 [Compound 1.25, 4-(2-{4-[1-(3,4-dimethylphenyl)-8-methoxy-1H-pyrazolo[4,3-c]quinolin-3-yl]-2-methoxyphenoxy}ethyl)morpholine] | 100 to 500 | 1000 to 5000 | – | – | –
10 to 20 | COc1ccc2ncc3c(-c4ccc(N5CCN(C)CC5)cc4)nn(-c4ccc(C)c(C)c4)c3c2c1 [Compound 1.16, 1-{4-[1-(3,4-dimethylphenyl)-8-methoxy-1H-pyrazolo[4,3-c]quinolin-3-yl]phenyl}-4-methylpiperazine] | 50 to 100 | < 500 | – | – | –
20 to 50 | COc1ccc2ncc3c(-c4ccc(OCCCN5CCOCC5)c(OC)c4)nn(-c4ccc(C)c(C)c4)c3c2c1 [Compound 1.26, 4-(3-{4-[1-(3,4-dimethylphenyl)-8-methoxy-1H-pyrazolo[4,3-c]quinolin-3-yl]-2-methoxyphenoxy}propyl)morpholine] | 50 to 100 | 500 to 1000 | – | – | –
< 10 | COc1ccc2ncc3c(-c4cccc(N5CCC(N(C)C)CC5)c4)nn(-c4cccc(C)c4C)c3c2c1 [Compound 1.14, 1-{3-[1-(2,3-dimethylphenyl)-8-methoxy-1H-pyrazolo[4,3-c]quinolin-3-yl]phenyl}-N,N-dimethylpiperidin-4-amine] | > 500 | – | – | – | –
20 to 50 | COc1ccc2ncc3c(-c4ccc(N(C)CCCN(C)C)cc4)nn(-c4ccc(C)c(C)c4)c3c2c1 [Compound 1.18, N-[3-(dimethylamino)propyl]-4-[1-(3,4-dimethylphenyl)-8-methoxy-1H-pyrazolo[4,3-c]quinolin-3-yl]-N-methylaniline] | 100 to 500 | > 5000 | – | – | –
